Test results reported in publication PMC6761534 (Antimicrobial Agents and Chemotherapy, 2019).
Values after ≈ are worked out from the molar mass of the structure shown.

Test system: M. bovis BCG
Experiment: microbe, parasite or virus in culture
Format: cell-based
Conditions: Mycobacterium tuberculosis variant bovis BCG, 24 h, read-out: IC50 ATP depletion (intrabacterial ATP)

Structure (SMILES)	IC50 [nM]
COc1nc2ccc(Br)cc2cc1[C@@H](c1ccccc1)[C@@](O)(CCN(C)C)c1cccc2ccccc12 [BDQ, Bedaquiline, reference compound]	9.16
COc1cc([C@](O)(CCN(C)C)[C@@H](c2cc3cc(Br)ccc3nc2OC)c2cc(OC)nc(OC)c2OC)cc(OC)n1 [TBAJ-876]	0.89
COc1cc([C@](O)(CCN(C)C)[C@@H](c2cc3cc(Br)ccc3nc2OC)c2ccnc(OC)c2OC)cc(OC)n1 [compound 5307]	0.48
COc1cc([C@](O)(CCN(C)C)[C@@H](c2cc3cc(Br)ccc3nc2OC)c2cccc3c2OCCO3)cc(OC)n1 [compound 5316]	0.34
COc1cc([C@](O)(CCN(C)C)[C@H](c2cc(OC(C)C)cnc2OC)c2cc3cc(Br)ccc3nc2OC)cc(OC)n1 [compound 5366]	0.32

Target: M. smegmatis F-ATP synthase (Mycolicibacterium smegmatis, UniProt A0R1Z9+A0R205)
Experiment: biochemical
Set-up: species or system Mycobacterium smegmatis
Conditions: not given

Structure (SMILES)	IC50 [nM]
COc1nc2ccc(Br)cc2cc1[C@@H](c1ccccc1)[C@@](O)(CCN(C)C)c1cccc2ccccc12 [BDQ, Bedaquiline, reference compound]	0.2
COc1cc([C@](O)(CCN(C)C)[C@@H](c2cc3cc(Br)ccc3nc2OC)c2cc(OC)nc(OC)c2OC)cc(OC)n1 [TBAJ-876]	0.0059
COc1cc([C@](O)(CCN(C)C)[C@@H](c2cc3cc(Br)ccc3nc2OC)c2ccnc(OC)c2OC)cc(OC)n1 [compound 5307]	0.0087
COc1cc([C@](O)(CCN(C)C)[C@@H](c2cc3cc(Br)ccc3nc2OC)c2cccc3c2OCCO3)cc(OC)n1 [compound 5316]	0.011
COc1cc([C@](O)(CCN(C)C)[C@H](c2cc(OC(C)C)cnc2OC)c2cc3cc(Br)ccc3nc2OC)cc(OC)n1 [compound 5366]	0.0164

Target: mycobacterial F-ATP synthase (Mycobacterium bovis, UniProt A1KI93+A1KI99)
Sequence (A1KI93 whole entry, looked up): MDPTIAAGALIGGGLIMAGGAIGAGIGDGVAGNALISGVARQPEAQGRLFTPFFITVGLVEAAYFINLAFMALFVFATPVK
Sequence (A1KI99 whole entry, looked up): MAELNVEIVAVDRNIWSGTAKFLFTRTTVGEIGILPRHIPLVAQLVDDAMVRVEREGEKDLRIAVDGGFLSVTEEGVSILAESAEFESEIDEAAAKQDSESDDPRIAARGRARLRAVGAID
Experiment: biochemical
Set-up: species or system Mycobacterium bovis BCG
Conditions: not given

Structure (SMILES)	IC50 [nM]
COc1nc2ccc(Br)cc2cc1[C@@H](c1ccccc1)[C@@](O)(CCN(C)C)c1cccc2ccccc12 [BDQ, Bedaquiline, reference compound]	5.3
COc1cc([C@](O)(CCN(C)C)[C@@H](c2cc3cc(Br)ccc3nc2OC)c2cc(OC)nc(OC)c2OC)cc(OC)n1 [TBAJ-876]	0.031
COc1cc([C@](O)(CCN(C)C)[C@@H](c2cc3cc(Br)ccc3nc2OC)c2ccnc(OC)c2OC)cc(OC)n1 [compound 5307]	0.091
COc1cc([C@](O)(CCN(C)C)[C@@H](c2cc3cc(Br)ccc3nc2OC)c2cccc3c2OCCO3)cc(OC)n1 [compound 5316]	0.047
COc1cc([C@](O)(CCN(C)C)[C@H](c2cc(OC(C)C)cnc2OC)c2cc3cc(Br)ccc3nc2OC)cc(OC)n1 [compound 5366]	0.2

Test system: M. smegmatis WT
Experiment: microbe, parasite or virus in culture
Format: cell-based, Mycobacterium smegmatis
Conditions: Mycolicibacterium smegmatis

Structure (SMILES)	MIC90 [nM]
COc1nc2ccc(Br)cc2cc1[C@@H](c1ccccc1)[C@@](O)(CCN(C)C)c1cccc2ccccc12 [BDQ, Bedaquiline, reference compound]	100 (≈ 55.6 ng/mL)
COc1cc([C@](O)(CCN(C)C)[C@@H](c2cc3cc(Br)ccc3nc2OC)c2cc(OC)nc(OC)c2OC)cc(OC)n1 [TBAJ-876]	6.3 (≈ 4.14 ng/mL)
COc1cc([C@](O)(CCN(C)C)[C@@H](c2cc3cc(Br)ccc3nc2OC)c2ccnc(OC)c2OC)cc(OC)n1 [compound 5307]	3.5 (≈ 2.2 ng/mL)
COc1cc([C@](O)(CCN(C)C)[C@@H](c2cc3cc(Br)ccc3nc2OC)c2cccc3c2OCCO3)cc(OC)n1 [compound 5316]	4.6 (≈ 2.87 ng/mL)
COc1cc([C@](O)(CCN(C)C)[C@H](c2cc(OC(C)C)cnc2OC)c2cc3cc(Br)ccc3nc2OC)cc(OC)n1 [compound 5366]	5.5 (≈ 3.61 ng/mL)

Same assay, conditions: Mycolicibacterium smegmatis, 24 h, read-out: MIC50 ± SD, M. smegmatis WT

Structure (SMILES)	MIC50 [nM]
COc1nc2ccc(Br)cc2cc1[C@@H](c1ccccc1)[C@@](O)(CCN(C)C)c1cccc2ccccc12 [BDQ, Bedaquiline, reference compound]	12 ± 0.1 (≈ 6.67 ng/mL)
COc1cc([C@](O)(CCN(C)C)[C@@H](c2cc3cc(Br)ccc3nc2OC)c2cc(OC)nc(OC)c2OC)cc(OC)n1 [TBAJ-876]	1.1 ± 0.05 (≈ 0.723 ng/mL)
COc1cc([C@](O)(CCN(C)C)[C@@H](c2cc3cc(Br)ccc3nc2OC)c2ccnc(OC)c2OC)cc(OC)n1 [compound 5307]	0.8 ± 0.05 (≈ 0.502 ng/mL)
COc1cc([C@](O)(CCN(C)C)[C@@H](c2cc3cc(Br)ccc3nc2OC)c2cccc3c2OCCO3)cc(OC)n1 [compound 5316]	0.6 ± 0.03 (≈ 0.375 ng/mL)
COc1cc([C@](O)(CCN(C)C)[C@H](c2cc(OC(C)C)cnc2OC)c2cc3cc(Br)ccc3nc2OC)cc(OC)n1 [compound 5366]	2.1 ± 0.06 (≈ 1.38 ng/mL)

Test system: M. tuberculosis H37Rv
Experiment: microbe, parasite or virus in culture
Format: cell-based
Conditions: Mycobacterium tuberculosis, 168 h, read-out: M. tuberculosis H37Rv MIC90

Structure (SMILES)	MIC90 [nM]
COc1nc2ccc(Br)cc2cc1[C@@H](c1ccccc1)[C@@](O)(CCN(C)C)c1cccc2ccccc12 [BDQ, Bedaquiline, reference compound]	400 (≈ 222 ng/mL)
COc1cc([C@](O)(CCN(C)C)[C@@H](c2cc3cc(Br)ccc3nc2OC)c2cc(OC)nc(OC)c2OC)cc(OC)n1 [TBAJ-876]	125 (≈ 82.2 ng/mL)
COc1cc([C@](O)(CCN(C)C)[C@@H](c2cc3cc(Br)ccc3nc2OC)c2ccnc(OC)c2OC)cc(OC)n1 [compound 5307]	70 (≈ 43.9 ng/mL)
COc1cc([C@](O)(CCN(C)C)[C@@H](c2cc3cc(Br)ccc3nc2OC)c2cccc3c2OCCO3)cc(OC)n1 [compound 5316]	70 (≈ 43.7 ng/mL)
COc1cc([C@](O)(CCN(C)C)[C@H](c2cc(OC(C)C)cnc2OC)c2cc3cc(Br)ccc3nc2OC)cc(OC)n1 [compound 5366]	30 (≈ 19.7 ng/mL)

Test system: M. smegmatis ε subunit overexpresser strain
Experiment: microbe, parasite or virus in culture
Format: cell-based
Conditions: Mycolicibacterium smegmatis, 24 h, 1 day, read-out: MIC50 ± SD, ε overexpresser

Structure (SMILES)	MIC50 [nM]
COc1nc2ccc(Br)cc2cc1[C@@H](c1ccccc1)[C@@](O)(CCN(C)C)c1cccc2ccccc12 [BDQ, Bedaquiline, reference compound]	24 ± 0.1 (≈ 13.3 ng/mL)
COc1cc([C@](O)(CCN(C)C)[C@@H](c2cc3cc(Br)ccc3nc2OC)c2cc(OC)nc(OC)c2OC)cc(OC)n1 [TBAJ-876]	2.75 ± 0.02 (≈ 1.81 ng/mL)
COc1cc([C@](O)(CCN(C)C)[C@@H](c2cc3cc(Br)ccc3nc2OC)c2ccnc(OC)c2OC)cc(OC)n1 [compound 5307]	8 ± 0.1 (≈ 5.02 ng/mL)
COc1cc([C@](O)(CCN(C)C)[C@@H](c2cc3cc(Br)ccc3nc2OC)c2cccc3c2OCCO3)cc(OC)n1 [compound 5316]	1.68 ± 0.02 (≈ 1.05 ng/mL)
COc1cc([C@](O)(CCN(C)C)[C@H](c2cc(OC(C)C)cnc2OC)c2cc3cc(Br)ccc3nc2OC)cc(OC)n1 [compound 5366]	14.3 ± 0.07 (≈ 9.37 ng/mL)

Test system: M. bovis BCG
Experiment: microbe, parasite or virus in culture
Format: cell-based
Conditions: Mycobacterium tuberculosis variant bovis BCG, 120 h, read-out: Growth inhibition MIC90

Structure (SMILES)	MIC90 [nM]
COc1nc2ccc(Br)cc2cc1[C@@H](c1ccccc1)[C@@](O)(CCN(C)C)c1cccc2ccccc12 [BDQ, Bedaquiline, reference compound]	70 (≈ 38.9 ng/mL)
COc1cc([C@](O)(CCN(C)C)[C@@H](c2cc3cc(Br)ccc3nc2OC)c2cc(OC)nc(OC)c2OC)cc(OC)n1 [TBAJ-876]	7.2 (≈ 4.73 ng/mL)
COc1cc([C@](O)(CCN(C)C)[C@@H](c2cc3cc(Br)ccc3nc2OC)c2ccnc(OC)c2OC)cc(OC)n1 [compound 5307]	3.6 (≈ 2.26 ng/mL)
COc1cc([C@](O)(CCN(C)C)[C@@H](c2cc3cc(Br)ccc3nc2OC)c2cccc3c2OCCO3)cc(OC)n1 [compound 5316]	3.6 (≈ 2.25 ng/mL)
COc1cc([C@](O)(CCN(C)C)[C@H](c2cc(OC(C)C)cnc2OC)c2cc3cc(Br)ccc3nc2OC)cc(OC)n1 [compound 5366]	3.4 (≈ 2.23 ng/mL)

Test system: mycobacterial F-ATP synthase (ATPase activity)
Experiment: Continuous ATP hydrolysis assay with M. smegmatis inverted membrane vesicles
Format: biochemical, Mycobacterium smegmatis
Conditions: 100 μM

Structure (SMILES)	Inhibition of ATPase activity [%]
COc1nc2ccc(Br)cc2cc1[C@@H](c1ccccc1)[C@@](O)(CCN(C)C)c1cccc2ccccc12 [BDQ, Bedaquiline, reference compound]	78
COc1cc([C@](O)(CCN(C)C)[C@H](c2cc(OC(C)C)cnc2OC)c2cc3cc(Br)ccc3nc2OC)cc(OC)n1 [compound 5366]	36

Same assay, conditions: 250 μM

Structure (SMILES)	Inhibition of ATPase activity (in words)	Inhibition of ATPase activity [%]
COc1nc2ccc(Br)cc2cc1[C@@H](c1ccccc1)[C@@](O)(CCN(C)C)c1cccc2ccccc12 [BDQ, Bedaquiline, reference compound]	almost completely	–
COc1cc([C@](O)(CCN(C)C)[C@H](c2cc(OC(C)C)cnc2OC)c2cc3cc(Br)ccc3nc2OC)cc(OC)n1 [compound 5366]	–	40

Same assay, conditions: BDQ-like

Structure (SMILES)	Inhibition of ATPase activity (in words)
COc1cc([C@](O)(CCN(C)C)[C@@H](c2cc3cc(Br)ccc3nc2OC)c2cc(OC)nc(OC)c2OC)cc(OC)n1 [TBAJ-876]	strong
COc1cc([C@](O)(CCN(C)C)[C@@H](c2cc3cc(Br)ccc3nc2OC)c2ccnc(OC)c2OC)cc(OC)n1 [compound 5307]	strong
COc1cc([C@](O)(CCN(C)C)[C@@H](c2cc3cc(Br)ccc3nc2OC)c2cccc3c2OCCO3)cc(OC)n1 [compound 5316]	strong
